Article PMC6230509 (Neuropharmacology, 2018)

Experiments:
[1] = target: peripheral benzodiazepine receptor (PBR) (Rattus norvegicus, UniProt P16257); assay: NIMH PDSP radioligand competition binding, PBR
[2] = target: κ-opioid receptor (KOR) (Homo sapiens, UniProt P41145); assay: NIMH PDSP radioligand competition binding, KOR
[3] = target: dopamine transporter (DAT) (Homo sapiens, UniProt Q01959); assay: NIMH PDSP radioligand competition binding, DAT
[4] = target: T1, 5-HT2C (Homo sapiens, UniProt P28335); assay: NIMH PDSP radioligand competition binding, 5-HT2C
T1 sequence (P28335 33-458): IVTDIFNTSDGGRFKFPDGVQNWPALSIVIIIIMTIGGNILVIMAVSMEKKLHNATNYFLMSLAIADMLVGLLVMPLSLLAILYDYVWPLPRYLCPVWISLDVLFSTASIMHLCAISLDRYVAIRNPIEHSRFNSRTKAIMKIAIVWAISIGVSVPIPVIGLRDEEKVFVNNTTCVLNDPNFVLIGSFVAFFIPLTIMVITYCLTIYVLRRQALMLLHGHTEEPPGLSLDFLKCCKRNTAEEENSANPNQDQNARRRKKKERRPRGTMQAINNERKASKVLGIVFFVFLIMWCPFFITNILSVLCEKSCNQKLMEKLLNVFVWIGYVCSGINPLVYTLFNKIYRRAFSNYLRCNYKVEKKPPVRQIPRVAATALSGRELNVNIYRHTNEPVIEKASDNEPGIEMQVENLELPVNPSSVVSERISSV

[5] = target: D5 (Homo sapiens, UniProt P21918); assay: NIMH PDSP radioligand competition binding, D5
[6] = Binding Affinity (Ki, nM), PBR, [3H]PK11195, rat kidney, natively expressed
[7] = Binding Affinity (Ki, nM), [3H]SCH23390, cloned human receptor

| SMILES | Ki [1, 6] [nM] | Ki ([1]; Ki value, peripheral benzodiazepine receptors, bound stated) [nM] | Ki [2] [nM] | Ki [3] [nM] | Ki [4] [nM] | Ki [5, 7] [nM] | Ki ([5]; Ki value, bound stated) [nM] |
| --- | --- | --- | --- | --- | --- | --- | --- |
| C=CCN(CC=C)CCc1c(-c2ccccc2)[nH]c2ccccc12 [2-Ph-DALT, 2-phenyl-N,N-diallyltryptamine] | 1930 | < 10000 | 589 | 746 | 278 | 2000 | < 10000 |
| C=CCN(CC=C)CCc1c[nH]c2cccc(OC(C)=O)c12 [4-AcO-DALT, 4-acetoxy-N,N-diallyltryptamine] | > 10000 | – | 5230 | > 10000 | 1520 | > 10000 | – |
| C=CCN(CC=C)CCc1c[nH]c2cccc(O)c12 [4-HO-DALT, 4-hydroxy-N,N-diallyltryptamine] | > 10000 | – | > 10000 | > 10000 | 2110 | > 10000 | – |
| C=CCN(CC=C)CCc1c(C)[nH]c2ccc(F)cc12 [5-F-2-Me-DALT, 5-fluoro-2-methyl-N,N-diallyltryptamine] | > 10000 | – | 580 | 2210 | 541 | > 10000 | – |
| C=CCN(CC=C)CCc1c(C)[nH]c2ccc(OC)cc12 [5-MeO-2-Me-DALT, 5-methoxy-2-methyl-N,N-diallyltryptamine] | > 10000 | – | 391 | 2410 | > 10000 | > 10000 | – |
| C=CCN(CC=C)CCc1c[nH]c2c(CC)cccc12 [7-Et-DALT, 7-ethyl-N,N-diallyltryptamine] | > 10000 | – | 580 | 1730 | 443 | > 10000 | – |
